System: sugarcane plantlet, cultivar CPO-1372
Details: in vivo
Experimental: Wax paper containers were cut into 4 cm and 7 cm lengths. One open end of each container was secured with either a 38 um thick LDL film, prepared as described in Example 25, or a 254 um thick soybean oil gel film. The latter was prepared by dissolving Kraton® A1535 poly(styrene-b-ethylene-co-butylene-co-styrene-b-styrene) triblock polymer in soybean oil (MP Biomedicals, Solon, Ohio) at 9 wt. % and 155° C., and casting the hot solution on a glass substrate using a doctor blade with a 5 cm wide and 254 um thick gap, preheated to 155° C. Upon cooling to room temperature, the physical gelation of the triblock polymer in the oil yielded a solid, but highly deformable film. LDL film was affixed to the wax paper container using a thin layer of cyanoacrylate adhesive (Sigma-Aldrich, St. Louis, Mo.). Soybean oil gel film was affixed by heating the film, still adhered to the glass substrate, to near its sol-gel transition (approximately 80° C.), pressing the end of the wax-paper container into the softened film, and cooling to room temperature to re-solidify the film.
The 4 and 7 cm wax paper containers, having their bottom ends secured with LDL or soybean oil gel film, were then loaded approximately one-third full with dry Metro-Mix® 360 growing media. One regenerated sugarcane plantlet was then added to each container. […]

Substance: poly(lactide-b-dimethylsiloxane-b-lactide) [LDL]
- discoloration of plantlet shoots in contact with the closure (phytotoxicity): no discoloration
